{"source": "patent US9308268B2", "about": "“Solubilized benzoyl peroxyde acne” (TRANSDERMAL CORP, priority 2005, dated 2016)", "key": {"[1]": {"assay": "Solubility of benzoyl peroxide", "type": "physicochemical", "details": "by weight of the solubilized benzoyl peroxide topical formulation", "protocol": "Benzoyl peroxide is a crystalline solid with a melting point of 103° C. to 106° C., and is insoluble in water.\nBenzoyl peroxide is soluble in organic solvents, but most organic solvents are toxic and therefore not suitable for pharmaceutical/cosmetic use. Polar organic solvents such as acetone and ethanol are less toxic, but the flammability of these solvents as well as the ability of these solvents to irritate and strip the skin of its protective mantle limit their use in pharmaceutical or cosmetic compositions.\nIn contrast to prior art formulations of benzoyl peroxide, the benzoyl peroxide will actively go into solution at levels as high as 10% by weigh of the solubilized benzyl peroxide topical formulation. Furthermore, the solubilized benzoyl peroxide topical formulation is translucent and has increased efficacy."}, "[2]": {"details": "cited from earlier work"}}}
{"smiles": "O=C(OOC(=O)c1ccccc1)c1ccccc1", "note": "[Benzoyl peroxide]", "values": [{"measurement": "level at which benzoyl peroxide goes into solution", "setting": "[1]", "value": "≤ 10", "unit": "%"}, {"measurement": "solubility in organic solvents", "setting": "[2]; organic solvents", "value": "soluble"}, {"measurement": "solubility in water", "setting": "[2]; water", "value": "insoluble"}]}
